Data published in the supplement of paper PMC10307832.

What was measured:
Assay in all cases: relative viability (nuclei count vs DMSO), 5 days (fraction); higher = more cells survive
AZD8055 + Decitabine = compound: COc1ccc(-c2ccc3c(N4CCOC[C@@H]4C)nc(N4CCOC[C@@H]4C)nc3n2)cc1CO [AZD8055] + Nc1ncn([C@H]2C[C@H](O)[C@@H](CO)O2)c(=O)n1 [Decitabine] (partner 2 µM)
Outline: (§1)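 Relative viability is defined as nuclei in treated wells over nuclei in vehicle wells. Duplicate plates were run and medians reported. Lung cancer cell lines in 1536-well plates were dosed by pin tool one day after seeding, with one drug or with a fixed anchor-drug dose plus five library-drug doses (not always all listed) in √10 steps, and nuclei were counted after 5 days.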

AZD8055 + Crizotinib = compound: COc1ccc(-c2ccc3c(N4CCOC[C@@H]4C)nc(N4CCOC[C@@H]4C)nc3n2)cc1CO [AZD8055] + C[C@@H](Oc1cc(-c2cnn(C3CCNCC3)c2)cnc1N)c1c(Cl)ccc(F)c1Cl [Crizotinib] (partner 1 µM)
Outline: as §1

AZD8055 + Phenformin = compound: COc1ccc(-c2ccc3c(N4CCOC[C@@H]4C)nc(N4CCOC[C@@H]4C)nc3n2)cc1CO [AZD8055] + N=C(N)NC(=N)NCCc1ccccc1 [Phenformin] (partner 250 µM)
Outline: as §1

AZD8055 + Navitoclax = compound: COc1ccc(-c2ccc3c(N4CCOC[C@@H]4C)nc(N4CCOC[C@@H]4C)nc3n2)cc1CO [AZD8055] + CC1(C)CCC(c2ccc(Cl)cc2)=C(CN2CCN(c3ccc(C(=O)NS(=O)(=O)c4ccc(N[C@H](CCN5CCOCC5)CSc5ccccc5)c(S(=O)(=O)C(F)(F)F)c4)cc3)CC2)C1 [Navitoclax] (partner 0.5 µM)
Outline: as §1

Cell Line	relative viability (AZD8055 + Decitabine; first compound 0.01 µM)	relative viability (AZD8055 + Decitabine; first compound 0.03162 µM)	relative viability (AZD8055 + Decitabine; first compound 0.1 µM)	relative viability (AZD8055 + Decitabine; first compound 0.3162 µM)	relative viability (AZD8055 + Decitabine; first compound 1 µM)	relative viability (AZD8055 + Crizotinib; first compound 0.01 µM)	relative viability (AZD8055 + Crizotinib; first compound 0.03162 µM)	relative viability (AZD8055 + Crizotinib; first compound 0.1 µM)	relative viability (AZD8055 + Crizotinib; first compound 0.3162 µM)	relative viability (AZD8055 + Crizotinib; first compound 1 µM)	relative viability (AZD8055 + Phenformin; first compound 0.01 µM)	relative viability (AZD8055 + Phenformin; first compound 0.03162 µM)	relative viability (AZD8055 + Phenformin; first compound 0.1 µM)	relative viability (AZD8055 + Phenformin; first compound 0.3162 µM)	relative viability (AZD8055 + Phenformin; first compound 1 µM)	relative viability (AZD8055 + Navitoclax; first compound 0.01 µM)	relative viability (AZD8055 + Navitoclax; first compound 0.03162 µM)	relative viability (AZD8055 + Navitoclax; first compound 0.1 µM)	relative viability (AZD8055 + Navitoclax; first compound 0.3162 µM)	relative viability (AZD8055 + Navitoclax; first compound 1 µM)
NCI-H727	0.875	0.85	0.736	0.498	0.616	0.994	0.896	0.536	0.292	0.279	0.542	0.38	0.584	0.33	0.327	0.432	0.397	0.324	0.168	0.215
NCI-H838	0.513	0.343	0.305	0.278	0.296	0.969	0.745	0.476	0.293	0.307	0.553	0.362	0.354	0.233	0.218	0.985	0.627	0.347	0.358	0.305
NCI-H1355	0.395	0.335	0.321	0.248	0.231	1.12	0.851	0.587	0.231	0.231	0.442	0.396	0.344	0.286	0.28	0.959	0.736	0.382	0.21	0.21
NCI-H1437	0.612	0.553	0.509	0.363	0.302	0.946	0.963	0.899	0.337	0.19	0.315	0.299	0.301	0.206	0.203	1.23	1.09	0.921	0.344	0.213
NCI-H1650	0.535	0.432	0.439	0.384	0.358	0.919	1.24	1.02	0.518	0.43	0.534	0.518	0.383	0.288	0.266	1.01	1.15	1.07	0.519	0.502
NCI-H1651	0.69	0.319	0.481	0.416	0.347	0.896	0.738	0.786	0.633	0.529	0.323	0.318	0.329	0.261	0.232	1.08	0.879	0.622	0.52	0.282
NCI-H1666	0.744	0.685	0.627	0.702	0.685	0.936	1.01	0.812	0.648	0.465	0.619	0.553	0.584	0.542	0.488	0.878	0.819	0.731	0.561	0.417
NCI-H1734	0.551	0.344	0.433	0.299	0.234	0.734	0.587	0.472	0.256	0.282	0.417	0.288	0.264	0.176	0.194	1.04	0.742	0.472	0.316	0.173
NCI-H1755	0.714	0.636	0.691	0.506	0.461	0.824	0.762	0.652	0.397	0.393	0.609	0.594	0.541	0.463	0.474	0.953	0.71	0.687	0.296	0.307
NCI-H1792	0.585	0.38	0.338	0.093	0.124	0.927	0.82	0.82	0.173	0.157	0.193	0.193	0.0875	0.0907	0.109	0.89	0.518	0.51	0.13	0.086
NCI-H1915	0.272	0.251	0.258	0.254	0.244	0.922	0.822	0.901	0.642	0.422	0.373	0.348	0.356	0.364	0.302	0.853	0.769	0.81	0.757	0.509
NCI-H1944	0.429	0.349	0.402	0.319	0.226	1.09	0.918	0.973	0.427	0.343	0.193	0.2	0.187	0.148	0.129	1.05	0.929	0.851	0.457	0.316
NCI-H1975	0.458	0.371	0.312	0.238	0.237	0.943	0.959	0.515	0.386	0.254	0.369	0.309	0.233	0.172	0.174	0.967	0.91	0.802	0.279	0.247
NCI-H1993	0.49	0.488	0.49	0.444	0.386	0.819	0.688	0.59	0.588	0.609	0.509	0.469	0.529	0.49	0.576	0.785	0.681	0.649	0.665	0.56
NCI-H2009	0.376	0.451	0.376	0.305	0.268	1.01	1.05	0.832	0.831	0.273	0.508	0.455	0.486	0.294	0.228	1.11	1.14	1.04	0.553	0.323
NCI-H2023	0.243	0.161	0.175	0.129	0.118	0.521	0.507	0.339	0.119	0.119	0.463	0.326	0.293	0.138	0.13	0.951	0.871	0.598	0.249	0.181
